Measurements taken from patent publication US20210000830A1, “CANCER TREATMENT METHOD USING Trk INHIBITOR AND KINASE INHIBITOR IN COMBINATION” (ONO PHARMACEUTICAL CO., LTD., priority 2017, published 2021).

Experiments:
[1] = test system: KM12-AR (compound A resistant KM12 cell lines); assay: Growth inhibition test in compound A resistant KM12 cell lines (KM12-AR); format: cell-based, human; settings: KM12-AR cells; single treatment
Procedure: Pharmacological Experiment Example 5: Growth Inhibition Test in Compound a Resistant KM12 Cell Lines
Using KM12 as TPM3-NTRK1-positive human colon cancer cell lines, a strain resistant to the compound A was established. A DMEM (Life technologies, product number: 11965) containing a 10 vol % FBS and 1 vol % penicillin-streptomycin liquid was prepared as a culture medium. The thawed KM12 was suspended in the culture medium. At room temperature, 180 g was centrifuged for 3 minutes, the supernatant was removed by suction, and the cell sediment was then re-suspended in the culture medium, and a total amount of 50 mL was inoculated in a 225 cm^2 flask (Asahi Glass Co., Ltd.). […]
Then, every two or three days, the culture medium was replaced or subcultured. […] The cell sediment was suspended in the DMEM culture medium, a part of the cell suspension was then collected, and the number of viable cells was counted. […]
Using KM12-AR, an effect when the compound A and trametinib, selumetinib, palbociclib, gefitinib, erlotinib, afatinib, lapatinib, neratinib or canertinib were combined was evaluated. […]
On the day when the compound was treated, 10 mM of each compound (DMSO solution) was serially diluted with DMSO to prepare a diluted solution. […] After the compound was added, the growth inhibition rate was calculated in the same method as in Pharmacological Experiment Example 3.

[2] = test system: TPM3-NTRK1-positive human colon cancer cell lines KM12; assay: Growth inhibition test in TPM3-NTRK1 positive KM12 cell lines (CellTiter-Glo, combination index); format: cell-based; settings: named kinase inhibitor used in combination with compound A; KM12 cells, 72 hours; CI<1 synergistic
Procedure: Pharmacological Experiment Example 3: Growth Inhibition Test in TPM3-NTRK1 Positive KM12 Cell Lines
Using KM12 as TPM3-NTRK1-positive human colon cancer cell lines, an effect when 1-{2-[4-(2-amino-5-chloro-3-pyridinyl)phenoxy]-5-pyrimidinyl}-3-[2-(methylsulfonyl)-5-(trifluoromethyl)phenyl]urea (hereinafter sometimes referred to as a compound A) and trametinib, selumetinib, palbociclib, afatinib or erlotinib were combined was evaluated. Cells were subcultured using a DMEM containing a 10 vol % inactivated fetal bovine serum (FBS) and 1 vol % penicillin-streptomycin liquid as a culture medium before they underwent the experiment.
One day before the compound was treated, cells were floated using 0.25% Trypsin-EDTA, and the cells were collected into a centrifuge tube from a culture flask. At room temperature, 180 g of the cells were centrifuged for 3 minutes, and the cell sediment was then suspended in a DMEM culture medium. A part of the cell suspension was collected, the number of cells was counted, and the cells were then suspended in the DMEM culture medium at a cell density of 3.75×10^4 cells/mL to prepare a cell suspension. The cell suspension was inoculated at 80 μL/well in a 96-well tissue culture plate (Asahi Glass Co., Ltd.), and left for 24 hours under 37° C., 5% CO2, and 95% air conditions.
On the day when the compound was treated, 10 mM of each compound (DMSO solution) was serially diluted with DMSO to prepare a diluted solution. The diluted solution of each compound and DMSO were diluted 100-fold in a culture medium to prepare a 10-fold concentration of the treatment solution of each compound and the medium solution. The compound A solution or medium solution prepared above was added at 10 μL/well to wells of a 96-well tissue culture plate in which cells were stationary-cultured for 24 hours. Then, in the same manner, the trametinib, selumetinib, palbociclib, afatinib or erlotinib solution or the medium solution was added at 10 μL/well to wells of the 96-well tissue culture plate. […]
After the stationary culture was completed, a luminescent signal (relative luminescent unit, RLU) of each well was measured by a microplate reader using a CellTiter-Glo Luminescent Cell Viability Assay kit (Promega, G7571). An average value of RLUs of 3 wells of a medium group (a group treated with a medium solution having a compound concentration of zero (0)) was calculated, and a growth inhibition rate in each well was calculated by the following mathematical formula. […]
In order to analyze the combined effect, using a fluorescence intensity, the effective dose (ED)50, ED75, ED90 and ED95 were calculated, and a combination index (CI) described in Advances in enzyme regulation, vol. 22, 1984, pp. 27-55 was calculated for analysis. […]

[3] = test system: ETV6-NTRK3 positive human leukemia cell lines IMS-M2; assay: Growth inhibition experiment in ETV6-NTRK3 positive IMS-M2 cell lines (combination index); format: cell-based; settings: named kinase inhibitor used in combination with compound A; IMS-M2 cells, 72 hours; CI<1 synergistic
Procedure: Cells were subcultured using an RPMI culture medium containing a 10 vol % FBS and 1 vol % penicillin-streptomycin liquid before they underwent the experiment.
On the day when the compound was treated, cells were collected from a culture flask into a centrifuge tube. At room temperature, 300 g of cells were centrifuged for 3 minutes, and the cell sediment was then suspended in the RPMI culture medium.
The diluted solution of each compound and DMSO were diluted 100-fold in a culture medium to prepare a 10-fold concentration of the treatment solution of each compound and the medium solution.

Structure (SMILES)	growth inhibitory effect, treated alone [1]	CI (median value) [2]	CI (median value) [3]
CS(=O)(=O)c1ccc(C(F)(F)F)cc1NC(=O)Nc1cnc(Oc2ccc(-c3cc(Cl)cnc3N)cc2)nc1 [1-{2-[4-(2-amino-5-chloro-3-pyridinyl)phenoxy]-5-pyrimidinyl}-3-[2-(methylsulfonyl)-5-(trifluoromethyl)phenyl]urea]	no growth inhibitory effect was observed		
CN(C)C/C=C/C(=O)Nc1cc2c(Nc3ccc(F)c(Cl)c3)ncnc2cc1O[C@H]1CCOC1 [Afatinib, afatinib]		0.861	0.869
CC(=O)c1c(C)c2cnc(Nc3ccc(N4CCNCC4)cn3)nc2n(C2CCCC2)c1=O [Palbociclib, palbociclib]		0.660	0.719
Cn1cnc2c(F)c(Nc3ccc(Br)cc3Cl)c(C(=O)NOCCO)cc21 [Selumetinib, selumetinib]		0.674	0.549
CC(=O)Nc1cccc(-n2c(=O)n(C3CC3)c(=O)c3c(Nc4ccc(I)cc4F)n(C)c(=O)c(C)c32)c1 [Trametinib, trametinib]		0.705	0.652
